Test results taken from paper PMC4942689, “Deciphering the function of the CNGB1b subunit in olfactory CNG channels” (Scientific Reports, 2016).

Experiments:
CNGA2RE:B1b = target: T1, CNGA2RE:B1b (Rattus norvegicus, UniProt A0A8I5ZN27+Q00195, R538E); test: Ligand binding, confocal patch-clamp fluorometry; parameters: key to Ligand binding to CNGB1b: +: ligand binding to the respective modulatory subunits was either observed or not; −: ligand binding to the respective modulatory subunits was either observed or not; settings: for Ligand binding to CNGB1b: construct CNGA2RE:B1b
T1 construct: expressed in transfected cells; host or cells: Xenopus laevis oocytes (cRNA injection), excised patches
T1 sequence (Q00195 whole entry R538E): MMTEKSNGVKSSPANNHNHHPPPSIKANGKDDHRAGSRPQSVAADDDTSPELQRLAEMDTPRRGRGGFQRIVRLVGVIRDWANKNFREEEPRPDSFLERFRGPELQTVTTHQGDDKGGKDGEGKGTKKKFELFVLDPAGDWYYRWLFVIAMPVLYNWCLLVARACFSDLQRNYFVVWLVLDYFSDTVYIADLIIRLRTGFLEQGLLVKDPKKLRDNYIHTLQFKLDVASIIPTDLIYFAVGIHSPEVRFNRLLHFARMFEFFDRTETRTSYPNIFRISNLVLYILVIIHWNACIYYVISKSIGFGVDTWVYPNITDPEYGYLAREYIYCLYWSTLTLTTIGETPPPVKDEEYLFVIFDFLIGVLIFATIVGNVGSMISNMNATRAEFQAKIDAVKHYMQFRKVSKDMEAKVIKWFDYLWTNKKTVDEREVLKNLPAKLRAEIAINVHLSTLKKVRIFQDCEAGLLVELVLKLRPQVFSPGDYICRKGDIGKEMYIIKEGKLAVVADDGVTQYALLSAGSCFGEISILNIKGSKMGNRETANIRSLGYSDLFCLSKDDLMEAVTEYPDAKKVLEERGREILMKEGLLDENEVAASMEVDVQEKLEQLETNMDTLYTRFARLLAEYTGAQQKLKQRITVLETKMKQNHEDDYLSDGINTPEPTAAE
T1 sequence (A0A8I5ZN27 1-858 isoform A0A8I5ZN27-2, stated change not applied): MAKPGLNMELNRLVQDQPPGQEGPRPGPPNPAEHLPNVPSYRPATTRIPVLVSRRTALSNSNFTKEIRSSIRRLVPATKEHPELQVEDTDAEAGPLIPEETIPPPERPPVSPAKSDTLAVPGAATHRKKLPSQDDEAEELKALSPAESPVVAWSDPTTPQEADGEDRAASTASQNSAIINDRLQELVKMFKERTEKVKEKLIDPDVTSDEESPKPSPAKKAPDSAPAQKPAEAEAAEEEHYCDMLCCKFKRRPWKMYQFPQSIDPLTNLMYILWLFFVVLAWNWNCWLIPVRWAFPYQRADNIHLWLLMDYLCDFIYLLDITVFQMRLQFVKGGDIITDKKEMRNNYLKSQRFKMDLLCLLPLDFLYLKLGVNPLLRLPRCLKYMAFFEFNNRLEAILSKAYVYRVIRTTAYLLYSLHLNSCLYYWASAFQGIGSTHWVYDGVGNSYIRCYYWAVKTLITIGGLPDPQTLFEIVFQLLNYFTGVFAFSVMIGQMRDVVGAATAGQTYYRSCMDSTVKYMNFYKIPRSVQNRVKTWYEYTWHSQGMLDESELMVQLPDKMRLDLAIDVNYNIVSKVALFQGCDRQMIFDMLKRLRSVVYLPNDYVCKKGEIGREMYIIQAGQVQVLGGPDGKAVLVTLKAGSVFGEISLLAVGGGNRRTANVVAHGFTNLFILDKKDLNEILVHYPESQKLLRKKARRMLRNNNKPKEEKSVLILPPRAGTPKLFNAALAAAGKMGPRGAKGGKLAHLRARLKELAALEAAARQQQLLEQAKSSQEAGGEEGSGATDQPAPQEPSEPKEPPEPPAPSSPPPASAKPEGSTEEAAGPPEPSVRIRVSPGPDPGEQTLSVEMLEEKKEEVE
Source text: (§1) The channels to be studied were expressed in Xenopus oocytes. We first tested the subunit composition in our channels when coexpressing different combinations of subunits by single-channel recordings. For CNGA2:A4, CNGA2:B1b and CNGA2:A4:B1b channels we exclusively obtained the specific and easily distinguishable single-channel activity reported earlier when injecting respective amounts of RNA[7][13]. We therefore assumed that the channels formed had always the expected subunit composition. The specific binding of cyclic nucleotides and the activation of the CNG channels were measured in parallel by means of confocal patch-clamp fluorometry in excised patches, using fluorescent cyclic nucleotide derivatives. The method has been described previously.
To study ligand binding to the CNGB1b subunit selectively, the binding domain of the CNGA2 subunits was disabled by either the point mutation R538E (red crosses in the cartoons) or T539M (blue crosses in the cartoons)[13][20]. […] To this end, CNGB1b was coexpressed with CNGA2RE.
(§2) The ligand binding was measured in macropatches by patch-clamp fluorometry[41][42] combined with confocal microscopy. […] Recordings were performed with an LSM 510 or 710 confocal microscope (Zeiss, Jena, Germany) and were triggered by the ISO3 software (MFK, Niedernhausen, Germany). To distinguish between the fluorescence of the unbound ligands from that of the bound ligands, a second dye, DY647 (Dyomics, Jena, Germany), was added to the bath solution. The 543-nm and 633-nm lines of a He-Ne laser were used to excite fcAMP/fcGMP and DY647, respectively. The method of confocal patch-clamp fluorometry has been described in detail previously.

CNGA2:A4:B1b channels = target: T2, CNGA2:A4:B1b channels (Rattus norvegicus, UniProt A0A8I5ZN27+Q00195+Q64359); test: Concentration-activation relationship, inside-out patch-clamp; format: biochemical
T2 construct: expressed in transfected cells; host or cells: Xenopus laevis oocytes (cRNA injection 2:1:1), excised inside-out patches
T2 sequence (Q00195 whole entry): as the sequence (Q00195 whole entry R538E) above, with E538R counted along it
T2 sequence (Q64359 whole entry): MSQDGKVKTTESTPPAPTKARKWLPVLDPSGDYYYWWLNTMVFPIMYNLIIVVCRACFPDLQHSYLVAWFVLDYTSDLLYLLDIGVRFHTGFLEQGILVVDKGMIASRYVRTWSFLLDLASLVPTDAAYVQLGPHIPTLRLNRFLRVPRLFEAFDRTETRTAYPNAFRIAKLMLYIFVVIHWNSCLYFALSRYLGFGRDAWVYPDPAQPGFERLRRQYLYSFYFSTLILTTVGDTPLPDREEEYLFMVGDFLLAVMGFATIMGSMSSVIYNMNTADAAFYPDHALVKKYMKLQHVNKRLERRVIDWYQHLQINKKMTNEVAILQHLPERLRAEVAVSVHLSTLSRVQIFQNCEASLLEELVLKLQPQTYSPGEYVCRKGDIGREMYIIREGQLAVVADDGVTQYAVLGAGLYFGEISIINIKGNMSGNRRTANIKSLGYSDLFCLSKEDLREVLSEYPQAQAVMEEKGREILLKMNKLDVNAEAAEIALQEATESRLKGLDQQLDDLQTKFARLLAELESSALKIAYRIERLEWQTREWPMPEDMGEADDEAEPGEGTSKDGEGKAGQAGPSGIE
T2 sequence (A0A8I5ZN27 1-858 isoform A0A8I5ZN27-2): as the sequence (A0A8I5ZN27 1-858 isoform A0A8I5ZN27-2, stated change not applied) above
Method: (§3) Patch-clamp experiments were performed using an Axopatch 200B amplifier (Molecular Devices LLC, CA, U.S.A.) in the inside-out configuration. The patch pipettes for recording of macroscopic currents were pulled from borosilicate glass tubing (outer diameter 2.0 mm, inner diameter 1.0 mm; Hilgenberg GmbH, Germany). The initial resistance was 0.7–1.3 MΩ. The patches were formed as pushed inside-out patches. […] Cyclic nucleotide concentration jumps were performed using a double-barreled glass pipette mounted on a piezo-driven device. Intracellular (bath) and extracellular (pipette) solutions contained (mM) 150 KCl, 1 EGTA, 5 Hepes, pH = 7.4 with KOH. […] Currents in the absence of the cyclic nucleotide were subtracted. All patches included in this study were first tested for channel expression in the presence of a saturating ligand concentration. Only patches with large current, i.e. a large number of channels, were included in our statistics. The currents were measured at +10 mV or, if mentioned, at +100 mV.
Fits of equations to data points were performed with the 8.1G® software (OriginLab Corporation, Northampton, U.S.A.). Concentration-activation relationships were obtained by relating the actual current amplitude, I, to the maximum current amplitude elicited by a saturating concentration of ligand, Imax, and plotting this ratio as function of the ligand concentration, x. The concentration-activation data were fitted using the Hill equation
where EC50 is the ligand concentration of half maximum effect and H the Hill coefficient.
In fHcAMP the dye DY547 is coupled to
(b) Concentration-activation relationships of the CNGA2:A4:B1b channels activated by either
The currents were recorded […]

CNGA2RE:A4RE:B1bRE [1] = target: T3, CNGA2RE:A4RE:B1bRE (Rattus norvegicus, UniProt A0A8I5ZN27+Q00195+Q64359, R1106E/R430E/R538E); test: Channel activation during confocal patch-clamp fluorometry; format: biochemical; settings: 2 μM fHcAMP; binding domain in CNGB1b also disabled
T3 construct: expressed in transfected cells; host or cells: Xenopus laevis oocytes (cRNA injection), excised inside-out patches
T3 sequence (Q00195 whole entry R538E, the tested form may be a part): as the sequence (Q00195 whole entry R538E) above
T3 sequence (Q64359 whole entry R430E, the tested form may be a part): as the sequence (Q64359 whole entry) above, with R430E counted along it
T3 sequence (A0A8I5ZN27 1-858 isoform A0A8I5ZN27-2 R657E): as the sequence (A0A8I5ZN27 1-858 isoform A0A8I5ZN27-2, stated change not applied) above, with R657E counted along it
Method: (§4) To verify the hypothesis that the CNGB1b subunit in CNGA2:A4:B1b channels binds cyclic nucleotides, we coexpressed CNGB1b with CNGA4RE and either CNGA2RE or CNGA2TM and measured ligand binding in the presence of 10 μM fcGMP. […] To verify the specificity of the binding to the CNGB1b subunit in these heterotetrameric channels, we coexpressed the CNGB1bRE subunit with CNGA2RE and CNGA4RE.
Figure 2 In a CNGA2:A4 background the CNGB1b subunit binds both fcGMP and fHcAMP and activates the channel. (a) Binding of fcGMP to the CNGB1b subunit evokes channel activation. Binding of fcGMP to CNGB1b was observed when coexpressed with either CNGA2RE:A4RE or CNGA2TM:A4RE (upper diagram). […] (b) Binding of fHcAMP to CNGB1b was observed when coexpressed with both CNGA2RE and CNGA4RE. When disabling the binding domain of CNGB1b, the fluorescence intensity was nearly abolished. Correspondingly, CNGA2RE:A4RE:B1b channels were activated by the ligand only when the CNGB1b binding site was available.
as §3, §2

CNGA2RE:A4RE:B1b [2] = target: T4, CNGA2RE:A4RE:B1b (Rattus norvegicus, UniProt A0A8I5ZN27+Q00195+Q64359, R430E/R538E); test: Concentration-activation relationship and activation by fluorescent ligands, patch-clamp; format: biochemical; settings: 2 μM fHcAMP; of the saturating activation measured with 4 mM cGMP
T4 construct: expressed in transfected cells; host or cells: Xenopus laevis oocytes (cRNA injection), excised inside-out patches
T4 sequence (Q00195 whole entry R538E): as the sequence (Q00195 whole entry R538E) above
T4 sequence (Q64359 whole entry R430E): as the sequence (Q64359 whole entry) above, with R430E counted along it
T4 sequence (A0A8I5ZN27 1-858 isoform A0A8I5ZN27-2, stated change not applied): as the sequence (A0A8I5ZN27 1-858 isoform A0A8I5ZN27-2, stated change not applied) above
Method: as §3, with “In order to determine the apparent affinity of the modulatory subunits in heterotetrameric CNGA2:A4:B1b channels for cGMP, we coexpressed each of them with disabled neighbored subunits, generating themselves activation effects only at much higher ligand concentrations. In case of two well-separated current components, this would allow us to determine the EC50 value for the CNGB1b and CNGA4 subunit in functional heterotetrameric channels. Patch-clamp” for “Patch-clamp”, “The initial resistance was 0.7–1.3 MΩ.” left out, “mV. Fits of equations to data points were performed with the 8.1G® software (OriginLab Corporation, Northampton, U.S.A.). Concentration-activation relationships were obtained by relating the actual current amplitude, I, to the maximum current amplitude elicited by a saturating concentration of ligand, Imax, and plotting this ratio as function of the ligand concentration, x.” for “mV.”

CNGA2RE:A4RE:B1b [3] = target: T4, CNGA2RE:A4RE:B1b; test: Ligand binding, confocal patch-clamp fluorometry; parameters: key to Ligand binding to CNGA4 / Ligand binding to CNGB1b: +: ligand binding to the respective modulatory subunits was either observed or not; −: ligand binding to the respective modulatory subunits was either observed or not
Source text: as §1, §4, §2

CNGA2RE:A4RE:B1bRE [4] = target: T3, CNGA2RE:A4RE:B1bRE; test: Ligand binding, confocal patch-clamp fluorometry; parameters: key to Ligand binding to CNGA4 / Ligand binding to CNGB1b: +: ligand binding to the respective modulatory subunits was either observed or not; −: ligand binding to the respective modulatory subunits was either observed or not
Source text: as §1, §4, §2

Substance | ligand binding to the CNGB1b subunit (in words) (CNGA2RE:B1b; 10 μM, CNGB1b coexpressed with CNGA2RE) | Ligand binding to CNGB1b (CNGA2RE:B1b; 10 μM) | Ligand binding to CNGB1b (CNGA2RE:B1b; 2 μM) | binding to the CNGB1b subunit (in words) (CNGA2RE:B1b; fHcAMP, CNGA2RE:B1b channels) | EC50 (CNGA2:A4:B1b channels; CNGA2:A4:B1b, steady-state, +10 mV, equation (1), 7-10 patches) [nM] | H (CNGA2:A4:B1b channels; Hill coefficient, CNGA2:A4:B1b, steady-state, +10 mV) | potency to open CNGA2:A4:B1b channels compared to fcAMP (CNGA2:A4:B1b channels; relative to fcAMP) | activation (CNGA2RE:A4RE:B1bRE [1]) | channel activation (CNGA2RE:A4RE:B1b [2]) [%] | binding to the CNGB1b subunit (in words) (CNGA2RE:A4RE:B1b [3]; 2 μM fHcAMP, CNGA2RE:A4RE:B1b channels) | Ligand binding to CNGB1b (CNGA2RE:A4RE:B1b [3]; 2 μM, construct CNGA2RE:A4RE:B1b) | binding to the CNGB1b subunit (in words) (CNGA2RE:A4RE:B1bRE [4]; 2 μM fHcAMP, binding domain in CNGB1b also disabled) | Ligand binding to CNGB1b (CNGA2RE:A4RE:B1bRE [4]; 2 μM, construct CNGA2RE:A4RE:B1bRE)
8-[DY-547]-AET-cAMP [fcAMP] | no ligand binding | − |  |  |  |  |  |  |  |  |  |  | 
8-[DY-547]-AHT-cAMP [fHcAMP] |  |  | − | did not detectably bind | 590 | 1.2 | eight times higher potency | abolished | 3.1 ± 0.7 | binds | + | abolished | −
